Measurements as given in patent publication US12617795B2, “Substituted 6,7-dihydro-5H-pyrrolo[3,4-d]pyrimidines, 5,7-dihydrofuro[3,4-d]pyrimidines, and pyrido[2,3-d]pyrimidines as KCC2 modulators” (Astrazeneca AB, priority 2020, dated 2026).

The molecules below were run against T1, KCC2 (Homo sapiens, UniProt Q9H2X9) (assay: KCC2 thallium transport FLIPR-based assay (Tl+ influx in HEK293 cells expressing KCC2)). Details: 90 min compound incubation at RT, thallium flux at 120 s used to determine EC50.
T1 construct: expressed in transfected cells; host or cells: HEK293 cells electroporated (Maxcyte STX) with the pcDNA3.1 KCC2 plasmid
T1 sequence (Q9H2X9 1-1139): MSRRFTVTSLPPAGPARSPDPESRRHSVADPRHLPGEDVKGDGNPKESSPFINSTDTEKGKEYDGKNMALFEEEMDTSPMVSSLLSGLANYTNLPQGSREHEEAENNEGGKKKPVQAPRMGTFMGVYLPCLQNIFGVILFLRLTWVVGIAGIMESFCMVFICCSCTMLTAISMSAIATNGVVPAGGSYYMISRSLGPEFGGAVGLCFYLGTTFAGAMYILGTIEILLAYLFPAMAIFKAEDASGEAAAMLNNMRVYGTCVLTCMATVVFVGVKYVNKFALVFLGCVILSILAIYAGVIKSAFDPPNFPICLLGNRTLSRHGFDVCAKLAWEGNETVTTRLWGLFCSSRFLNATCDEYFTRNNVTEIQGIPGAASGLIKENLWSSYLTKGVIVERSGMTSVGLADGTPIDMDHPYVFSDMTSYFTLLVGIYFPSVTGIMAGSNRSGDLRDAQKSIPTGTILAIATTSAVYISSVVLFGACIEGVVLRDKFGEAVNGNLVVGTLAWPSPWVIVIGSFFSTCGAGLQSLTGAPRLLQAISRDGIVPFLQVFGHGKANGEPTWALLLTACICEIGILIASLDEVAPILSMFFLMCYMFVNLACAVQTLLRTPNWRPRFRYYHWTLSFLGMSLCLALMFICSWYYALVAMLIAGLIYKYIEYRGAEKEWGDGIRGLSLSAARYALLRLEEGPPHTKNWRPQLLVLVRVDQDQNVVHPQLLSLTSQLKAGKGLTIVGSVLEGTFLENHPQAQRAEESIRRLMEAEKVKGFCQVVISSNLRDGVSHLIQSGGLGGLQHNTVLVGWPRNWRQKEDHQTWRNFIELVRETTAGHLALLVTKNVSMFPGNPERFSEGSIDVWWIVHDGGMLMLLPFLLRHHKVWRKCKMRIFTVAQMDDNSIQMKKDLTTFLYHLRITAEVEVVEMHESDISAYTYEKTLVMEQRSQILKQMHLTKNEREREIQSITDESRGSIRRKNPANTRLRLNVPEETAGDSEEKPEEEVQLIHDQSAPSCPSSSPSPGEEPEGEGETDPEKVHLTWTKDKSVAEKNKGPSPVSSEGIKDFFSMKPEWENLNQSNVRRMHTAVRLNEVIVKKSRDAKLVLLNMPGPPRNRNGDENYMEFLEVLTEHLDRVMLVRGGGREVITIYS
Type: cell-based
Method: A thallium transport FLIPR-based assay was used to measure the ability of compounds to activate KCC2. KCC2 activity is assessed by measuring KCC2-dependent Tl^+ influx in a KCC2-expressing cell. The assay protocol was based on those described by Delpire et al (Proc Natl Acad Sci USA. 2009 Mar. 31; 106(13): 5383-5388) and Zhang et al (Journal of Biomolecular Screening 15(2): 2010).
KCC2 was synthesised and codon optimised by GeneArt based on the Uniprot sequence Q9H2X9. The final sequence was subcloned into pcDNA3.1.
HEK293 cells were grown in 10 layer cell stacks at 37° C., 5% CO2, in DMEM, 10% fetal calf serum and 2 mM Glutamine. The cells were detached by removing the media and washing the cell stack with 100 ml of PBS. The PBS was removed and 100 ml of 1× TrypLE was added and the cell stack returned to 37° C. for 5 min. The detached cells were then counted in a Vi Cell counter and spun for 10 min at 1250 rpm in a Sorval Legend centrifuge. The cells were diluted down in Maxcyte electroporation buffer at 4× the final concentration and spun as before. The cell pellet was resuspended at 1×10^8/cells per ml and electroporated in a Maxcyte Cl 2.2 bag on a Maxcyte STX machine via the HEK293 programme with 200 ug/ml of plasmid DNA. The cells were then allowed to recover for 30 min before adding to 500 ml of PBS and then counted again on the Vi Cell. The cells were then frozen down in planer controlled rate freeze in 90% complete media, 10% DMSO.
All reagents were dispensed using a Mulitdrop Combi unless stated otherwise. All FluXOR Invitrogen propriety buffer compositions are mentioned in tables below.
HEK293 KCC2 cells were harvested at a density of 3.33×10^5 cells/mL in complete media (DMEM, Sigma, D6546, 10% fetal calf serum and 1% Glutamax) and 30 μL per well seeded into 384-well PDL coated black-clear plates (Corning, 354663). Leave cells at RT for 20 mins to settle before incubating for 48 h at 37° C., 5% CO2. Following incubation, perform three wash steps in HBSS (Sigma, H6648) using a Biotek cell washer with the final aspiration leaving 20 μL HBSS residual volume in each well. A further 20 μL per well of thallium loading dye is then added (1 h, RT, protect from light). 5 μL of test compounds (100 μM top concentration, 1:2 dilutions, 12 point curve) were added using the FLIPR TETRA and incubated at RT for 90 min in the dark. Following compound incubation, the thallium flux response is read on FLIPR TETRA (ex. 515-575 nm) which is initiated by FLIRR TETRA dispensing 5 μL stimulus buffer into each well. Recordings are measured every 1 second for 120 seconds. Thallium flux at 120 s used to determine EC50.
Compound buffer: Assay buffer with 1 μL of bumetanide per 10 ml.

Structure (SMILES) | EC50
CC(=O)Nc1cnc2nc(N3CCO[C@H](C)C3)nc(Nc3ccc(C4CCCCC4)cc3)c2c1 [Example 107, (R)—N-(4-((4-cyclohexylphenyl)amino)-2-(2-methylmorpholino)pyrido[2,3-d]pyrimidin-6-yl)acetamide] | 6.3 µM
CN(C)C(=O)CN1Cc2nc(C3=CCOCC3)nc(Nc3ccc(C4CCCCC4)cc3)c2C1 [Example 111, 2-{4-[(4-cyclohexylphenyl)amino]-2-(3,6-dihydro-2H-pyran-4-yl)-5,7-dihydro-6H-pyrrolo[3,4-d]pyrimidin-6-yl}-N,N-dimethylacetamide] | 5.35 µM
CC(C)N1Cc2c(Nc3ccc(-c4ccc(OCCNC(=O)OC(C)(C)C)cc4)cc3)nc(N3CCOCC3)nc2C1=O [Example 69, tert-Butyl (2-((4′-((6-isopropyl-2-morpholino-7-oxo-6,7-dihydro-5H-pyrrolo[3,4-d]pyrimidin-4-yl)amino)-[1,1′-biphenyl]-4-yl)oxy)ethyl)carbamate] | 1.56 µM
CC(C)N1Cc2c(Nc3ccc(-c4cccs4)cc3)nc(N3CCOCC3)nc2C1=O [Example 113, 2-(morpholin-4-yl)-6-(propan-2-yl)-4-{[4-(thiophen-2-yl)phenyl]amino}-5,6-dihydro-7H-pyrrolo[3,4-d]pyrimidin-7-one] | 4.74 µM
C#CCOc1ccc(-c2ccc(Nc3nc(N4CCOCC4)nc4c3CN(C(C)C)C4=O)cc2)cc1 [Example 71, 2-(morpholin-4-yl)-6-(propan-2-yl)-4-({4′-[(prop-2-yn-1-yl)oxy][1,1′-biphenyl]-4-yl}amino)-5,6-dihydro-7H-pyrrolo[3,4-d]pyrimidin-7-one] | 4.13 µM
CC(C)N1Cc2c(Nc3ccc(-c4ccc(Cl)c(Cl)c4)cc3)nc(N3CCOCC3)nc2C1=O [Example 85, 4-[(3′,4′-dichloro[1,1′-biphenyl]-4-yl)amino]-2-(morpholin-4-yl)-6-(propan-2-yl)-5,6-dihydro-7H-pyrrolo[3,4-d]pyrimidin-7-one] | 8.41 µM
CN1CCC(N2Cc3nc(N4CCOC(C5CC5)C4)nc(Nc4ccc(C5CCCCC5)cc4)c3C2)CC1 (stereo not drawn) [Example 112, N-(4-cyclohexylphenyl)-2-(2-cyclopropylmorpholino)-6-(1-methylpiperidin-4-yl)-6,7-dihydro-5H-pyrrolo[3,4-d]pyrimidin-4-amine] | 3.57 µM
C[C@@H]1CN(c2nc(Nc3ccc(C4CCCCC4)cc3)c3ccc[n+]([O-])c3n2)CCO1 [Example 99, (R)-4-((4-cyclohexylphenyl)amino)-2-(2-methylmorpholino)pyrido [2,3-d]pyrimidine 8-oxide] | 3.79 µM
C1=C(c2nc3c(c(Nc4ccc(C5CCC5)cc4)n2)COC3)CCOC1 [Example 91, N-(4-cyclobutylphenyl)-2-(3,6-dihydro-2H-pyran-4-yl)-5,7-dihydrofuro[3,4-d]pyrimidin-4-amine] | 9.92 µM
CC(C)c1ccc(Nc2nc(N3CCOCC3C)nc3c2CN(C(C)C)C3=O)cc1 (stereo not drawn) [Example 9, 2-(3-methylmorpholin-4-yl)-6-(propan-2-yl)-4-{[4-(propan-2-yl)phenyl]amino}-5,6-dihydro-7H-pyrrolo[3,4-d]pyrimidin-7-one] | 6.14 µM
Cc1cc(Nc2nc(N3CCOCC3)nc3c2CN(C(C)C)C3=O)ccc1-c1ccccc1 [Example 88, 4-[(2-methyl[1,1′-biphenyl]-4-yl)amino]-2-(morpholin-4-yl)-6-(propan-2-yl)-5,6-dihydro-7H-pyrrolo[3,4-d]pyrimidin-7-one] | 3.52 µM

Other lines, results leading:

EC50 | Structure (SMILES)
7.31 µM | CC(C)N1Cc2nc(N3CCO[C@H](C)C3)nc(Nc3ccc(C4CCCCC4)cc3)c2C1 [Example 110, (R)—N-(4-cyclohexylphenyl)-6-isopropyl-2-(2-methylmorpholino)-6,7-dihydro-5H-pyrrolo[3,4-d]pyrimidin-4-amine]
2.35 µM | CCOCCN(C)c1nc(Nc2ccc(C3CCCCC3)cc2)c2c(n1)C(=O)N(C(C)C)C2 [Example 20, 4-[(4-cyclohexylphenyl)amino]-2-[(2-ethoxyethyl)(methyl)amino]-6-(propan-2-yl)-5,6-dihydro-7H-pyrrolo[3,4-d]pyrimidin-7-one]
5.83 µM | CC(C)c1ccc(Nc2nc(N3CCOCC3)nc3c2CN(C(C)C)C3=O)cc1 [Example 86, 2-(morpholin-4-yl)-6-(propan-2-yl)-4-{[4-(propan-2-yl)phenyl]amino}-5,6-dihydro-7H-pyrrolo[3,4-d]pyrimidin-7-one]
0.633 µM | CC(C)N1Cc2c(Nc3ccc(C4CCCCC4)cc3)nc(-c3ccnc(C4CC4)c3)nc2C1=O [Example 42, 4-[(4-cyclohexylphenyl)amino]-2-(2-cyclopropylpyridin-4-yl)-6-(propan-2-yl)-5,6-dihydro-7H-pyrrolo[3,4-d]pyrimidin-7-one]
3.41 µM | CC(C)N1Cc2c(Nc3ccc(C4CCCCC4)cc3)nc(N3CCOC4(CCOCC4)C3)nc2C1=O [Example 25, 4-[(4-cyclohexylphenyl)amino]-2-(1,9-dioxa-4-azaspiro[5.5]undecan-4-yl)-6-(propan-2-yl)-5,6-dihydro-7H-pyrrolo[3,4-d]pyrimidin-7-one]
1.71 µM | CC(C)N1Cc2c(Nc3ccc(C4CCCCC4)cc3)nc(N3CCO[C@H](C)C3)nc2C1=O [Example 13, 4-[(4-cyclohexylphenyl)amino]-2-[(2R)-2-methylmorpholin-4-yl]-6-(propan-2-yl)-5,6-dihydro-7H-pyrrolo[3,4-d]pyrimidin-7-one]
2.04 µM | CC(C)N1Cc2c(Nc3ccc(C4CCCCC4)cc3)nc(N3CCSC3)nc2C1=O [Example 19, 4-[(4-cyclohexylphenyl)amino]-6-(propan-2-yl)-2-(1,3-thiazolidin-3-yl)-5,6-dihydro-7H-pyrrolo[3,4-d]pyrimidin-7-one]
0.749 µM | CC(C)N1Cc2c(Nc3ccc(C4CCCCC4)cc3)nc(N3CCOC(CC(F)(F)F)C3)nc2C1=O (stereo not drawn) [Example 16, 4-[(4-cyclohexylphenyl)amino]-6-(propan-2-yl)-2-[2-(2,2,2-trifluoroethyl)morpholin-4-yl]-5,6-dihydro-7H-pyrrolo[3,4-d]pyrimidin-7-one]
2.64 µM | CCC1CN(c2nc(Nc3ccc(C4CCCCC4)cc3)c3c(n2)C(=O)N(C(C)C)C3)CCO1 (stereo not drawn) [Example 21, 4-[(4-cyclohexylphenyl)amino]-2-(2-ethylmorpholin-4-yl)-6-(propan-2-yl)-5,6-dihydro-7H-pyrrolo[3,4-d]pyrimidin-7-one]
1.29 µM | CC(C)N1Cc2c(Nc3ccc(C4CCCCC4)cc3)nc(-c3ccncc3)nc2C1=O [Example 46, 4-[(4-cyclohexylphenyl)amino]-6-(propan-2-yl)-2-(pyridin-4-yl)-5,6-dihydro-7H-pyrrolo[3,4-d]pyrimidin-7-one]
